# Patent publication US20240342141A1, “Method for Treating or Preventing Diabetic Nephropathy” (Japan Tobacco Inc., priority 2015, published 2024)
# Experiments:
# prolyl hydroxylase (PHD) = conditions: as described in Patent Document 1 (WO 2011/007856); cited from earlier work
# [1] = test system: SHR/NDmcr-cp rat model of diabetic nephropathy; experiment: Suppressive effect on tubulointerstitial fibrosis in a rat model of diabetic nephropathy (sirius red staining); type: in vivo; conditions: male SHR/NDmcr-cp rats, Compound A 0.01% diet from 12 to 40 weeks of age (28 weeks), kidney sections; FIG. 1
# Experimental: Experiment 1. […] Male […] (Japan SLC, Inc.) was used as an experiment animal, and male WKY/Izm rat was used as a normal control (WKY group). The above-mentioned two types of rats were purchased at 6 weeks of age. After confirming that […] have hyperglycemia, hypertension, and hyperlipidemia; Compound A (0.01% diet) and vehicle (powdered diet) were administered to Compound A Group and Vehicle Group respectively from 12 weeks of age to 40 weeks of age. At 40 weeks of age, the rats were exsanguinated under isoflurane anesthesia, kidney was collected and fixed in 10% neutral buffered formalin, and then paraffin-embedded section was prepared. After deparaffinization, the section was stained with an iron hematoxylin solution for 8 minutes and then with a sirius red solution for 1 hour. The iron hematoxylin solution was prepared at the time of use by mixing equal volume of Solution 1 (dissolving 1 g hematoxylin in 100 mL ethanol) and Solution 2 (dissolving 2 g ferric chloride (FeCl3·6H2O) and 1 mL of 25% hydrochloric acid in 95 mL distilled water). […] An image of the sirius red-stained section was captured with HS All-in-One Fluorescence Microscope (BZ-9000, KEYENCE CORPORATION), and the ratio (%) of sirius red-stained area relative to the whole kidney area was measured by a built-in image analysis function.
# [2] = test system: hypoxia-inducible factor (HIF); conditions: as described in Patent Document 1 (WO 2011/007856); cited from earlier work
# [3] = test system: SD rat model of renal ischemia-reperfusion injury; experiment: Suppressive effect on tubulointerstitial fibrosis in a rat model of renal ischemia-reperfusion injury (sirius red staining); type: in vivo; conditions: male SD rats, oral once daily for 6 days starting 3 days before ischemia-reperfusion injury, 0.2 or 2 mg/mL at 5 mL/kg; kidney 4 weeks after injury; FIG. 3
# Experimental: Experiment 2. […] Male SD rat at 6 weeks of age (CHARLES RIVER LABORATORIES JAPAN, INC.) was used as an experiment animal. 0.5% (w/v) Methylcellulose (MC) was orally administered to Vehicle Group and Sham Group, and 0.2 mg/mL or 2 mg/mL Compound A suspended in 0.5% (w/v) methylcellulose (MC) was orally administered to Compound A Group at a dose of 5 mL/kg once daily for 6 days from 3 days before the ischemia-reperfusion injury. On one day before the ischemia-reperfusion injury, the right kidney was removed under isoflurane anesthesia. The ischemia-reperfusion injury was induced by clamping the left renal vein and artery for 45 minutes and then following reperfusion under isoflurane anesthesia, whereas such a surgery treatment was not performed for the Sham Group. 4 Weeks after the ischemia-reperfusion injury, the rats were exsanguinated under isoflurane anesthesia, kidney was collected and fixed in 10% neutral buffered formalin, and then paraffin-embedded section was prepared. Staining and image analysis were performed by a similar method as described above.
compound,measurement,setting,value
"O=C(O)CNC(=O)c1c(O)cc(CCc2ccccc2)n2ncnc12 [Compound A, 2-({[7-hydroxy-5-(2-phenylethyl)-[1,2,4]triazolo[1,5-a]pyridin-8-yl]carbonyl}amino)acetic acid]",prolyl hydroxylase (PHD) inhibitory action,prolyl hydroxylase (PHD),has a prolyl hydroxylase (PHD) inhibitory action
same,"tubulointerstitial fibrosis, sirius red-stained area ratio",[1],suppressive effect on tubulointerstitial fibrosis
same,stabilization of hypoxia-inducible factor (HIF),[2],stabilizes the hypoxia-inducible factor (HIF)
same,"tubulointerstitial fibrosis, sirius red-stained area ratio",[3],suppressive effect on tubulointerstitial fibrosis
